# Experimental data: ChEMBL document CHEMBL5584269 (Bioorg Med Chem Lett, 2024)
# Calls of active or inactive are those of the source. No cut-off for these calls is given here.
# Columns and labels:
# [1] = test system: Trypanosoma cruzi; assay: Antitrypanosomal activity against epimastigote form of Trypanosoma cruzi CL Brener assessed as reduction in parasite growth incubated for 72 hrs by alamar blue dye based fluorescence analysis; type: functional, organism-based
# [2] = test system: HeLa; assay: Cytotoxicity against human HeLa cells incubated for 72 hrs by alamar blue cell viability assay; type: functional, cell-based
# [3] = test system: Trypanosoma brucei; assay: Antitrypanosomal activity against bloodstream trypomastigote form of Trypanosoma brucei Lister 427 assessed as reduction in parasite growth incubated for 72 hrs by alamar blue dye based fluorescence analysis; type: functional, organism-based; settings: Lister 427, 72 h
# [4] = test system: Leishmania major; assay: Antileishmanial activity against promastigote form of Leishmania major Freidlin assessed as reduction in parasite growth incubated for 72 hrs by alamar blue dye based fluorescence analysis; type: functional, organism-based
# [5] = test system: Leishmania donovani; assay: Antileishmanial activity against promastigote form of Leishmania donovani assessed as reduction in parasite growth incubated for 72 hrs by alamar blue dye based fluorescence analysis; type: functional, organism-based
# [6] = test system: Leishmania donovani; assay: Antileishmanial activity against Leishmania donovani axenic amastigotes assessed as reduction in parasite growth incubated for 72 hrs by alamar blue dye based fluorescence analysis; type: functional, organism-based
# [7] = test system: Leishmania donovani; assay: Antileishmanial activity against Leishmania donovani amastigotes infected in human THP-1 cells assessed as reduction in parasite growth incubated for 72 hrs by alamar blue dye based fluorescence analysis; type: functional, organism-based; settings: THP-1, 72 h
# [8] = test system: THP-1; assay: Cytotoxicity against human THP-1 cells incubated for 72 hrs by alamar blue cell viability assay; type: functional, cell-based; settings: THP-1, 72 h
# [9] = Selectivity ratio of EC50 for antileishmanial activity against Leishmania donovani amastigotes infected in human THP-1 cells to EC50 for cytotoxicity against human THP-1 cells; type: functional
# [10] = test system: Leishmania major; assay: Induction of morphological change in promastigote form of Leishmania major Freidlin assessed as increase in intracellular vesicles at EC10 incubated for 48 hrs by DAPI staining based immunofluorescence analysis; type: functional, organism-based
# [11] = test system: Trypanosoma brucei; assay: Induction of morphological change in bloodstream trypomastigote form of Trypanosoma brucei Lister 427 assessed as reduction in cytokinesis at EC10 incubated for 48 hrs by DAPI staining based immunofluorescence analysis; type: functional, organism-based
# [12] = test system: Trypanosoma brucei; assay: Induction of morphological change in bloodstream trypomastigote form of Trypanosoma brucei Lister 427 assessed as appearance of swollen cells at EC10 incubated for 48 hrs by DAPI staining based immunofluorescence analysis; type: functional, organism-based
# [13] = test system: Leishmania major; assay: Antileishmanial activity against promastigote form of Leishmania major Freidlin assessed as morphological change at EC10 incubated for 48 hrs by DAPI staining based immunofluorescence analysis; type: functional, organism-based
# [14] = test system: Trypanosoma cruzi; assay: Antitrypanosomal activity against epimastigote form of Trypanosoma cruzi CL Brener assessed as fold change in reduction of parasite growth incubated for 72 hrs by alamar blue dye based fluorescence analysis relative to miltefosine; type: functional
SMILES,EC50 [1],EC50 [3],EC50 [2],EC50 [4],EC50 [5],EC50 [6],EC50 [7],EC50 [8],Ratio EC50 [9],Activity [10],Activity [11],Activity [12],Activity [13],fold change (FC) [14]
COC(=O)[C@H]1CCCN1C(=O)CCSC,33.6 µM,5.94 µM,> 250 µM,3.1 µM,2.68 µM,–,–,–,–,–,–,–,–,–
O=C(O)[C@H]1CCCN1C(=O)CCS,18.2 µM,16.7 µM,> 250 µM,6.06 µM,4.59 µM,–,–,–,–,–,–,–,–,–
COC(=O)[C@H]1CCCN1C(=O)C(C)(C)C,73.5 µM,96.7 µM,> 250 µM,39.9 µM,34.7 µM,–,–,–,–,–,–,–,–,–
CC(C)C(=O)N1CCC[C@H]1C(=O)O,61.5 µM,12.2 µM,> 250 µM,5.52 µM,8.07 µM,–,–,–,–,–,–,–,–,–
N=C(N)c1ccc(OCCCCCOc2ccc(C(=N)N)cc2)cc1 [PENTAMIDINE],–,0.002 µM,–,–,–,–,–,–,–,–,–,–,–,–
COC(=O)[C@@H]1CCCN1C(=O)[C@H](C)CS,22.7 µM,15.2 µM,> 250 µM,7.29 µM,2.81 µM,–,–,–,–,–,–,–,–,–
COC(=O)[C@@H]1CCCN1C(=O)[C@H](C)CSC,15.6 µM,13.2 µM,> 250 µM,5.3 µM,2.04 µM,–,–,–,–,–,–,–,–,–
C[C@H](CS)C(=O)N1CCC[C@H]1C(=O)O [CAPTOPRIL],–,22.9 µM,130 µM,12.4 µM,9.41 µM,–,–,–,–,–,–,–,–,–
CCCCCCCCCCCCCCCCOP(=O)([O-])OCC[N+](C)(C)C [MILTEFOSINE],–,–,–,5.31 µM,5.82 µM,2.67 µM,5.97 µM,> 250 µM,–,–,–,–,–,–
CC(C)CC(=O)N1CCC[C@@H]1C(=O)O,39.6 µM,1.92 µM,> 250 µM,2.77 µM,1.42 µM,–,–,–,–,–,–,–,–,–
COC(=O)[C@@H]1CCCN1C(=O)C(C)C,53.9 µM,9.85 µM,> 250 µM,4.51 µM,7.02 µM,–,–,–,–,–,–,–,–,–
COC(=O)[C@@H]1CCCN1C(=O)CCSC,19.5 µM,12.4 µM,> 250 µM,2.46 µM,2.02 µM,1.86 µM,4.67 µM,> 250 µM,50,–,–,–,–,–
CC(C)C(=O)N1CCC[C@@H]1C(=O)O,59.7 µM,9.9 µM,> 250 µM,4.11 µM,4.8 µM,–,–,–,–,–,–,–,–,–
COC(=O)[C@@H]1CCCN1C(=O)CCS,14.9 µM,20.3 µM,> 250 µM,7.02 µM,5.77 µM,–,–,–,–,–,–,–,–,–
COC(=O)[C@H]1CCCN1C(=O)CC(C)C,37.1 µM,1.44 µM,> 250 µM,2.04 µM,1.09 µM,0.87 µM,2.05 µM,> 250 µM,50,–,–,–,–,–
COC(=O)[C@H]1CCCN1C(=O)C(C)C,54.1 µM,7.52 µM,> 250 µM,3.3 µM,3.58 µM,–,–,–,–,–,–,–,–,–
COC(=O)[C@@H]1CCCN1C(=O)CC(C)C,14.2 µM,1.95 µM,> 250 µM,1.97 µM,1.63 µM,0.97 µM,2.23 µM,> 250 µM,50,Active,Active,Active,–,–
CSC[C@@H](C)C(=O)N1CCC[C@H]1C(=O)O,30.2 µM,26.3 µM,> 250 µM,11.6 µM,8.64 µM,2.14 µM,4.21 µM,> 250 µM,50,–,–,–,–,–
CC(C)CC(=O)N1CCC[C@H]1C(=O)O,17.4 µM,2.46 µM,> 250 µM,2.26 µM,2.03 µM,–,–,–,–,–,–,–,–,–
O=C(O)[C@@H]1CCCN1C(=O)CCS,20.8 µM,28.4 µM,> 250 µM,9.88 µM,7.15 µM,–,–,–,–,–,–,–,–,–

# More lines, main results first:
EC50 [1],EC50 [3],SMILES,EC50 [2],EC50 [4],EC50 [5],EC50 [6],EC50 [7],EC50 [8],Ratio EC50 [9],Activity [10],Activity [11],Activity [12],Activity [13],fold change (FC) [14]
3.11 µM,–,CC1CS(=O)(=O)CCN1/N=C/c1ccc([N+](=O)[O-])o1 (stereo not drawn) [NIFURTIMOX],–,–,–,–,–,–,–,–,–,–,–,–
80.2 µM,106 µM,CC(C)(C)C(=O)N1CCC[C@@H]1C(=O)O,> 250 µM,48.1 µM,41.2 µM,–,–,–,–,–,–,–,–,–
71.2 µM,5.9 µM,O=C(O)[C@H]1CCCN1C(=O)CCSCc1ccccc1,> 250 µM,39.6 µM,39.8 µM,–,–,–,–,–,–,–,–,–
44.1 µM,38 µM,COC(=O)[C@@H]1CCCN1C(=O)Cc1ccccc1,> 250 µM,12.4 µM,11.7 µM,–,–,–,–,–,–,–,–,–
60.2 µM,4.11 µM,COC(=O)[C@H]1CCCN1C(=O)CCSCc1ccccc1,> 250 µM,35.7 µM,33.9 µM,–,–,–,–,–,–,–,–,–
46.5 µM,40.8 µM,O=C(O)[C@@H]1CCCN1C(=O)Cc1ccccc1,> 250 µM,14.5 µM,13.8 µM,–,–,–,–,–,–,–,–,–
39.1 µM,9.7 µM,CSCCC(=O)N1CCC[C@@H]1C(=O)O,> 250 µM,4.81 µM,4.27 µM,–,–,–,–,–,–,–,–,–
> 200 µM,> 200 µM,O=C(O)[C@H]1CCCN1C(=O)Cc1ccccc1,> 250 µM,104 µM,98.4 µM,–,–,–,–,–,–,–,–,–
35.2 µM,28.2 µM,CSCCC(=O)N1CCC[C@H]1C(=O)O,> 250 µM,16.8 µM,13.5 µM,–,–,–,–,–,–,–,–,–
66.4 µM,58.3 µM,COC(=O)[C@@H]1CCCN1C(=O)C(C)(C)C,> 250 µM,14.5 µM,17.1 µM,–,–,–,–,–,–,–,–,–
19.9 µM,14.8 µM,O=C(O)[C@@H]1CCCN1C(=O)CCSCc1ccccc1,120 µM,3.16 µM,2.58 µM,–,–,–,–,–,–,–,–,–
70.9 µM,61.5 µM,CC(C)(C)C(=O)N1CCC[C@H]1C(=O)O,> 250 µM,20.4 µM,19.9 µM,–,–,–,–,–,–,–,–,–
30 µM,32.9 µM,COC(=O)[C@@H]1CCCN1C(=O)[C@H](C)CSCc1ccccc1,> 250 µM,8.65 µM,3.98 µM,–,–,–,–,–,–,–,–,–
5.1 µM,6.9 µM,COC(=O)[C@@H]1CCCN1C(=O)CCSCc1ccccc1,> 250 µM,1.24 µM,1.18 µM,0.91 µM,4.98 µM,> 250 µM,50,–,Active,Active,inactive,3
40.1 µM,38.6 µM,C[C@H](CSCc1ccccc1)C(=O)N1CCC[C@H]1C(=O)O,> 250 µM,16.8 µM,10.1 µM,–,–,–,–,–,–,–,–,–
> 200 µM,> 200 µM,COC(=O)[C@H]1CCCN1C(=O)Cc1ccccc1,> 250 µM,101 µM,95.2 µM,–,–,–,–,–,–,–,–,–
